In patent publication US20240122909A1, “TREATMENTS OF HEREDITARY ANGIOEDEMA” (KALVISTA PHARMACEUTICALS LIMITED, priority 2021, published 2024):

Test: Phase 2 study Part 2, efficacy in on-demand treatment of HAE attacks
Assay type: in vivo, human
Experimental: In Part 2, the subjects were randomized 1:1 to 2 treatment sequences. This part of the study was conducted away from the clinic or hospital. In Sequence 1 (study arm 1) subjects received a single dose of 600 mg of the compound to treat the first eligible HAE attack. Following resolution of this attack, subjects received a single dose of placebo to treat the second eligible HAE attack.
In Sequence 2 (study arm 2) subjects received a single dose of placebo to treat the first eligible HAE attack. Following resolution of this attack, subjects received a single dose of 600 mg of the compound to treat the second eligible HAE attack.
Laryngeal or facial attacks were not eligible for treatment. HAE attacks must have been treated within the first hour of onset and before reaching severe on the global attack severity scale. Subjects must also have been able to identify the start of a HAE attack. Upon onset of the eligible HAE attack, subjects notified the dedicated study physician or qualified designee with a description of the HAE attack. The dedicated study physician or qualified designee confirmed eligibility of the HAE attack and agreed to study drug being administered. HAE attacks required documentation, on the Subject Diary, of attack location, attack symptoms, time of onset, attack severity, and time of last substantial meal prior to dosing. Subjects took study drug, as instructed, and completed timed assessments of their HAE attack symptoms for a 48 h period as documented below in Table 3. The dedicated study physician or qualified designee contacted the subject within 24 h of the eligible HAE attack to confirm the subject's safety and wellbeing. Subjects were instructed to contact the dedicated study physician or qualified designee in case of any safety concerns. In the case of hypersensitivity, subjects contacted the dedicated study physician or qualified designee or contact the nearest emergency service. The dedicated study physician or qualified designee was available 24 h/day and 7 days/week to receive subject calls.
Time to use of conventional attack treatment was assessed. The subject diary captured the efficacy endpoints including time to use of conventional attack treatment and HAE attack severity.
Overall HAE attack severity was assessed on a 5-point Likert scale (5LS) scored as none, mild, moderate, severe and very severe.
Change in HAE attack severity was assessed using a 7-point transition question (7TQ), scored as Much better/Better/A little better/No change/A little worse/Worse/Much worse.
The type of HAE attack symptoms (abdominal pain, skin pain and skin swelling) was each assessed on a 100 mm visual analogue scale (VAS) anchored at 0 (none) and 100 (very severe).
The primary endpoint, time to use of conventional attack treatment, was analyzed using a generalization of Gehan's test proposed by Feingold and Gillespie (1996) (Crossover trials with censored data. Statistics in Medicine 1996; 15(10): 953-967) to reflect the repeat measures on each subject. Subjects were treated as censored if no worsening occurs within 12 h of study drug.
The proportion of HAE attacks that worsen by one level or more on the 5LS or that require conventional attack treatment within 12 h of study drug was analyzed using Prescott's test (1981) (The comparison of success rates in cross-over trials in the presence of an order effect. Applied Statistics 1981; 30: 9-15) to compare the treatment arms.
A similar approach to that used for the primary endpoint was followed for the analysis of the time between study drug and HAE attack worsening by one level or more on the 5LS or use of conventional attack treatment, whichever comes first within 12 h. […]

COCc1nn(Cc2ccc(Cn3ccccc3=O)cc2)cc1C(=O)NCc1nccc(OC)c1F [compound of Formula A, N-[(3-fluoro-4-methoxypyridin-2-yl)methyl]-3-(methoxymethyl)-1-({4-[(2-oxopyridin-1-yl)methyl]phenyl}methyl)pyrazole-4-carboxamide]
PGI-C: Median time to HAE attack being (1) rated a little worse or higher for two consecutive time points, or (2) use of conventional attack treatment, whichever comes first (600 mg, N = 53, at 12 hours): >12 h | PGI-C: Median time to HAE attack being rated a little worse or higher for two consecutive time points (600 mg, N = 53, at 12 hours): >12 h | PGI-C: Proportion of HAE attacks that were stable or improved (600 mg, N = 53, at 12 hours): 48 (90.6) n (%) | PGI-S: Median time to HAE attack resolution (rating of none) (600 mg, N = 53, at 12 hours): >12 h | PGI-S: Median time to improvement by one level or more from baseline (600 mg, N = 53, at 12 hours): 9.0 h | PGI-S: Proportion of HAE attacks that improved by 1 level or more from baseline (600 mg, N = 53, at 12 hours): 30 (56.6) n (%) | PGI-S: Proportion of patients with HAE attack resolution (rating of none) (600 mg, N = 53, at 12 hours): 20 (37.7) n (%) | VAS: Proportion of HAE attacks with symptom relief (50% reduction from baseline in composite VAS for three consecutive time points) (600 mg, N = 53, at 12 hours): 33 (62.3) n (%) | PGI-C: Median time to HAE attack being (1) rated a little worse or higher for two consecutive time points, or (2) use of conventional attack treatment, whichever comes first (600 mg, N = 53, at 24 hours): >24 h | PGI-C: Median time to HAE attack being rated a little worse or higher for two consecutive time points (600 mg, N = 53, at 24 hours): >24 h | PGI-C: Proportion of HAE attacks that were stable or improved (600 mg, N = 53, at 24 hours): 45 (84.9) n (%) | PGI-S: Median time to HAE attack resolution (rating of none) (600 mg, N = 53, at 24 hours): 18.0 h | PGI-S: Median time to improvement by one level or more from baseline (600 mg, N = 53, at 24 hours): 9.0 h | PGI-S: Proportion of HAE attacks that improved by 1 level or more from baseline (600 mg, N = 53, at 24 hours): 35 (66.0) n (%) | PGI-S: Proportion of patients with HAE attack resolution (rating of none) (600 mg, N = 53, at 24 hours): 28 (52.8) n (%) | VAS: Proportion of HAE attacks with symptom relief (50% reduction from baseline in composite VAS for three consecutive time points) (600 mg, N = 53, at 24 hours): 39 (73.6) n (%) | severity of the HAE attack, composite VAS score (600 mg, over 12 hours and 24 hours): reduced the severity of the HAE attack | attacks improved to “none” on PGI-S (5LS) (600 mg, within 12 hours): 37.7% | number of attacks stabilized or improved by PGI-S (5LS) or use of rescue (600 mg, within 12 hours): significantly increased the number of attacks stabilized or improved | attacks improved to “none” on PGI-S (5LS) (600 mg, within 24 hours): 52.8% | Median time to symptom relief (abdominal attacks): 1.5 h | attacks that achieved attack resolution within 24 hours (abdominal attacks): 61.1% | attacks that achieved symptom relief (PGI-C at least “A little better” within 12 hours) (abdominal attacks): 77.8% | Median time to symptom relief (peripheral attacks): 2.5 h | attacks that achieved attack resolution within 24 hours (peripheral attacks): 50.0% | attacks that achieved symptom relief (PGI-C at least “A little better” within 12 hours) (peripheral attacks): 77.5%
